The values that follow come from US8754073B2, “Substituted piperazino-dihydrothienopyrimidines” (Boehringer Ingelheim International GmbH, priority 2007, dated 2014).

Chain of PDE4B (Q07343 whole entry, species assumed): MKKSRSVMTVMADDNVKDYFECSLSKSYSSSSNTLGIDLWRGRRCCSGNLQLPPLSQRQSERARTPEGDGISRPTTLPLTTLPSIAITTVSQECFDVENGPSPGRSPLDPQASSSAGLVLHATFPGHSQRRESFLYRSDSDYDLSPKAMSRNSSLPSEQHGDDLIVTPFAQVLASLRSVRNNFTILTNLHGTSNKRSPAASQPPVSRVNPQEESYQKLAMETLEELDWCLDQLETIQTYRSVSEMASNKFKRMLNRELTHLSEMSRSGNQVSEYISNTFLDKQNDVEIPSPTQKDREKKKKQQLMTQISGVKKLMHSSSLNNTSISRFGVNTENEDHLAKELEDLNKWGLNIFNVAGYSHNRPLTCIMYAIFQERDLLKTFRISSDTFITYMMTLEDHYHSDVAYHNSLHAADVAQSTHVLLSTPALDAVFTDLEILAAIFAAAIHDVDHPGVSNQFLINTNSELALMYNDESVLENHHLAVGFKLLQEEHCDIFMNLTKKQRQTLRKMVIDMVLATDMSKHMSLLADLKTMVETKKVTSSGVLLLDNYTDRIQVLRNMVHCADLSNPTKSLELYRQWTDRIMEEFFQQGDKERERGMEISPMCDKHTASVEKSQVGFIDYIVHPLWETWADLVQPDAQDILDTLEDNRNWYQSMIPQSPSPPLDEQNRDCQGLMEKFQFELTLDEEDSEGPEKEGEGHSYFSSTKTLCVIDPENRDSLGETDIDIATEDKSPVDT

In one test the target is PDE4B (Homo sapiens, UniProt Q07343). In words: Scintillation Proximity Assay (SPA) of PDE4B enzyme activity ([H3]-cAMP cleavage). Type of test: biochemical. The following applies: test substance 1 μM; one-hour incubation of [H3]-cAMP with PDE4B enzyme at 30° C. Here is the method: The inhibitions (in %) at 1 μM of the individual Example substances are given in the following Table of Examples and were determined as follows:
The Scintillation Proximity Assay (SPA) (GE Healthcare, No. TRKQ7090) was carried out by using the different affinities of cyclic 3′-5′-adenosinemonophosphate (cAMP, low affinity) and linear 5′-adenosinemonophosphate (AMP, high affinity) for yttrium silicate scintillator beads. The cAMP specific phosphodiesterase (PDE) PDE4B cleaves the 3′-phosphoester bond of tritium-labelled [H3]-cAMP to form [H3]-5′-AMP. This [H3]-AMP accumulates on the scintillator beads because of its higher affinity for them and causes scintillation events (flashes of light) which are measured in a Wallac Microbeta Scintillation Counter.
The experiment starts with a one-hour incubation of [H3]-cAMP with the PDE4B enzyme in assay buffer at 30° C., in each case once with the Example substance to be tested (in a concentration of 1 μM) and once without the Example substance to be tested.
After this incubation, the reaction is stopped by the addition of the beads. The beads have an opportunity to settle in the next 45 minutes, then the measurement is carried out in the Scintillation Counter. If the substance is capable of inhibiting the enzymatic activity of the PDE4B, less [H3]-AMP is produced during the incubation phase and fewer scintillation events can be measured.
In the case of `CN1C[C@@H](Nc2nc(N3CCC4(CC3)CN(S(C)(=O)=O)c3ccccc34)nc3c2[S+]([O-])CC3)CCC1=O` (stereo partly drawn) [Example 44], the inhibition at 1 µM worked out at 95%. The same measure, in the same setting: to `O=C1Nc2ccccc2C2(CCN(c3nc4c(c(Nc5cccc(F)c5)n3)[S+]([O-])CC4)CC2)N1` (stereo not drawn) [Example 81] belongs 83%; to `CC(C)[C@H](CO)Nc1nc(N2CCC(c3ccncc3)CC2)nc2c1[S+]([O-])CC2` (stereo partly drawn) [Example 19, (R)-3-Methyl-2-[5-Oxo-2-(3.4.5.6-Tetrahydro-2H-[4,4′]Bipyridinyl-1-Yl)-6,7-Dihydro-5H-5λ^4-Thieno[3,2-d]Pyrimidin-4-Ylamino]-Butan-1-Ol], 83%; to `[O-][S+]1CCc2nc(N3CCC(c4nnc5ccccn45)CC3)nc(NC3(CO)CC3)c21` (stereo not drawn) [Example 108], 88%. Turning to `[O-][S+]1CCc2nc(N3CCC(c4ccc5ccccc5c4)CC3)nc(Nc3cccc(F)c3)c21` (stereo not drawn) [Example 142], the inhibition at 1 µM was found to be 94%. For `CC(C)c1noc(C2CCN(c3nc4c(c(N[C@@H](CO)C(C)C)n3)[S+]([O-])CC4)CC2)n1` (stereo partly drawn) [Example 160], 1 µM produced 86% inhibition. For `O=C1Nc2ccccc2C2(CCN(c3nc4c(c(NC5(CO)CC5)n3)[S+]([O-])CC4)CC2)O1` (stereo not drawn) [Example 36], the inhibition at 1 µM turned out to be 92%.

Still in this test, the particulars now being: test substance 1 μM; one-hour incubation with [H3]-cAMP at 30° C.
The molecule `CN1C[C@@H](Nc2nc(N3CCC(c4cc[n+]([O-])cc4)CC3)nc3c2[S+]([O-])CC3)CCC1=O` (stereo partly drawn) [Example 196] had an inhibition at 1 µM of 94%. As for `CN1C[C@@H](Nc2nc(N3CCC(C)(c4nc5cc(F)ccc5o4)CC3)nc3c2[S+]([O-])CC3)CCC1=O` (stereo partly drawn) [Example 197, 5-{2-[4-(5-fluorobenzoxazol-2-yl)-4-methylpiperidin-1-yl]-5-oxo-6,7-dihydro-5H-5λ^4-thieno[3,2-d]pyrimidin-4-ylamino}-1-methylpiperidin-2-one], the inhibition at 1 µM was 96%. Still for that read-out and setting: under `CC(C)(C)OC(=O)N[C@@H]1CC1Nc1nc(N2CCC(c3ccc(Cl)cc3)CC2)nc2c1[S+]([O-])CC2` (stereo partly drawn) [Example 222, tert-butyl (2-{2-[4-(4-chlorophenyl)-piperidin-1-yl]-5-oxo-6,7-dihydro-5H-5λ^4-thieno[3,2-d]pyrimidin-4-ylamino}-cyclopropyl)-carbamidate] stands 89%. On the same count and under the same terms, to `O=C(c1cccc(C2CCN(c3nc4c(c(NC5CCOCC5)n3)[S+]([O-])CC4)CC2)c1)N1CCOCC1` (stereo not drawn) [Example 247] belongs 90%.

In turn, `CC(C)[C@H](CO)Nc1nc(N2CCC(O)(c3ccc(Cl)cc3)CC2)nc2c1[S+]([O-])CC2` (stereo partly drawn) [Example 296] gave an inhibition at 1 µM of 81%. Molecule `O=C(N1CCc2ccc(OC3CCN(c4nc5c(c(NC6CCOCC6)n4)[S+]([O-])CC5)CC3)cc2CC1)C(F)(F)F` (stereo not drawn) [Example 182, 2,2,2-Trifluoro-1-(7-{1-[5-Oxo-4-(Tetrahydropyran-4-Ylamino)-6,7-Dihydro-5H-5λ^4-Thieno[3,2-d]Pyrimidin-2-Yl]-Piperidin-4-Yloxy}-1,2,4,5-Tetrahydrobenzo[d]Azepin-3-Yl)-Ethanone] came in with an inhibition at 1 µM of 82%. Still for that read-out and setting: to `CC(C)c1ccccc1OC1CCN(c2nc3c(c(NC4CCOCC4)n2)[S+]([O-])CC3)CC1` (stereo not drawn) [Example 272] belongs 95%. On the same count and under the same terms, to `CC(C)(NC(=O)c1cccc(C2CCN(c3nc4c(c(NC5CCOCC5)n3)[S+]([O-])CC4)CC2)c1)c1ccncc1` (stereo not drawn) [Example 255] belongs 93%. `Cc1nn(C)c(C)c1CNC(=O)c1ccc(OC2CCN(c3nc4c(c(NC5CCOCC5)n3)[S+]([O-])CC4)CC2)cc1` (stereo not drawn) [Example 243]: testing at 1 µM gave an inhibition of 94%.

As to `CC(C)(O)C1(Nc2nc(N3CCC(c4ccc(Cl)cc4)CC3)nc3c2[S+]([O-])CC3)CC1` (stereo not drawn) [Example 185, 2-(1-{2-[4-(4-chlorophenyl)-piperidin-1-yl]-5-oxo-6,7-dihydro-5H-5λ^4-thieno[3,2-d]pyrimidin-4-ylamino}-cyclopropyl)-propan-2-ol], testing at 1 µM gave an inhibition of 94%. The same measure, in the same setting: to `Cc1nc(C2CCN(c3nc4c(c(NC5CCOCC5)n3)[S+]([O-])CC4)CC2)oc1-c1ccc(Cl)cc1` (stereo not drawn) [Example 282] belongs 87%.

Usually inhibition stands for the share of the control response that was lost under treatment. A low value points to a weak effect.
